Results reported in patent US12421253B2 (Mirati Therapeutics, Inc., priority 2020, dated 2025).

Tests used:
[1] = system: H460 cells, pERK; experiment: Inhibition of KRas phosphorylation of ERK (Cisbio HTRF Advanced pERK assay); format: cell-based; settings: Homo sapiens, NCI-H460, 3 hrs, read-out: Inhibition (HTRF IC50 nM) of KRas-mediated Phosphorylation of ERK, H460
How it was run: (§1)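 Overnight-plated cells (RPMI, 10% FBS); compound 3 h, 37 °C, 10 uM top, 3-fold x10, 0.8% DMSO; min ctrl trametinib 0.2 uM; lysis 40 min 4 °C; pERK by HTRF, 2 h RT.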

[2] = system: HCT116 cells, pERK; experiment: as above; format: cell-based; settings: Homo sapiens, HCT-116, 3 hrs, read-out: Inhibition (HTRF IC50 nM) of KRas-mediated Phosphorylation of ERK, HCT116
How it was run: as §1

[3] = system: A549 cells, pERK; experiment: as above; format: cell-based; settings: Homo sapiens, 3 hrs, read-out: Inhibition (HTRF IC50 nM) of KRas-mediated Phosphorylation of ERK, A549
How it was run: as §1

[4] = system: ASPC1 cells, pERK; experiment: as above; format: cell-based; settings: Homo sapiens, ASPC1, 3 h, AsPC-1 cells, read-out: Inhibition (HTRF IC50 nM) of KRas-mediated Phosphorylation of ERK, AsPC-1
How it was run: as §1

[5] = system: H727 cells, pERK; experiment: as above; format: cell-based; settings: Homo sapiens, NCI-H727, 3 h, read-out: Inhibition (HTRF IC50 nM) of KRas-mediated Phosphorylation of ERK, H727
How it was run: as §1

[6] = system: NCI-H727 (G12V) cells, phospho-ERK; experiment: Inhibition of KRas-mediated phosphorylation of ERK (phospho-ERK/GAPDH antibody detection, LI-COR); format: cell-based; settings: Homo sapiens, 3 hours
How it was run: (§2)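 Cells seeded 20,000/well, attached 12-14 h, then compound (0.5% DMSO) for 3 h. Formaldehyde-fixed, methanol-permeabilized cells stained for phospho-ERK (Thr202/Tyr204) and GAPDH; infrared imaging. Ratio expressed as % of DMSO control; IC50 from 4-parameter fit.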

[7] = system: AsPC-1 (G12D) cells, phospho-ERK; experiment: as above; format: cell-based; settings: Homo sapiens, ASPC1, 3 hours
How it was run: as §2

[8] = system: A549 (G12S) cells, phospho-ERK; experiment: as above; format: cell-based; settings: Homo sapiens, 3 hours
How it was run: as §2

[9] = system: HCT116 (G13D) cells, phospho-ERK; experiment: as above; format: cell-based; settings: Homo sapiens, HCT-116, 3 hours
How it was run: as §2

[10] = system: PSN-1 (G12R) cells, phospho-ERK; experiment: as above; format: cell-based; settings: Homo sapiens, PSN1, 3 hours
How it was run: as §2

[11] = system: NCI-H358 (G12C) cells, phospho-ERK; experiment: as above; format: cell-based; settings: Homo sapiens, 3 hours
How it was run: as §2

[12] = system: NCI-H460 (Q61H) cells, phospho-ERK; experiment: as above; format: cell-based; settings: Homo sapiens, 3 hours
How it was run: as §2

[13] = target: KRas^G13D (Homo sapiens, UniProt P01116, G13D); experiment: biochemical
Sequence of KRas^G13D (P01116 1-169 isoform P01116-2 G13D): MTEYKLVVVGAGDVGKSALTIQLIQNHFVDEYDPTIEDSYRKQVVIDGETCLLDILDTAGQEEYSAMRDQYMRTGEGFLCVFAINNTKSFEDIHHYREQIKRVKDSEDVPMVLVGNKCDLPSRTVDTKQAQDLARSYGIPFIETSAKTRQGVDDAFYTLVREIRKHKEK
Experimental: (§3) The ability of a compound to bind to KRas was measured using a TR-FRET displacement assay. […] After a 60-minute incubation at room temperature, the reaction was measured using a BMG LABTECH CLARIO star Plus via TR-FRET. […] The POC values were fit to a 4-parameter IC50 equation and the IC50 value reported.

[14] = target: T1, KRas^G12V (Homo sapiens, UniProt P01116, G12V); experiment: KRas binding assay (TR-FRET displacement of Cy5 labelled tracer)
T1 construct: […]; biotin (biotinylated); purchased Accelegan Inc
T1 sequence (P01116 1-169 isoform P01116-2 G12V): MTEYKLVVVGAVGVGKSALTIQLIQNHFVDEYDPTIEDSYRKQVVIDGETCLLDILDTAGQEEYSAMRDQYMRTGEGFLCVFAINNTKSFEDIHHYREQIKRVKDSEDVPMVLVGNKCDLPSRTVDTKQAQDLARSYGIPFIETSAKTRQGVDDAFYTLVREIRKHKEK
Experimental: as §3

[15] = target: T2, KRas^WT (Homo sapiens, UniProt P01116); experiment: as above
T2 construct: […]; biotin (biotinylated); purchased Accelegan Inc
T2 sequence (P01116 1-169 isoform P01116-2): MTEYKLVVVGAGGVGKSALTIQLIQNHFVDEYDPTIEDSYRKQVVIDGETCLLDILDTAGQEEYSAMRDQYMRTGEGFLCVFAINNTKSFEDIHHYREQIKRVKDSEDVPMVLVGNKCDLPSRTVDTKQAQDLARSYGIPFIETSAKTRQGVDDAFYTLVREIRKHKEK
Experimental: as §3

[16] = target: T3, KRas^G12R (Homo sapiens, UniProt P01116, G12R); experiment: as above
T3 construct: […]; biotin (biotinylated); purchased Accelegan Inc
T3 sequence (P01116 1-169 isoform P01116-2 G12R): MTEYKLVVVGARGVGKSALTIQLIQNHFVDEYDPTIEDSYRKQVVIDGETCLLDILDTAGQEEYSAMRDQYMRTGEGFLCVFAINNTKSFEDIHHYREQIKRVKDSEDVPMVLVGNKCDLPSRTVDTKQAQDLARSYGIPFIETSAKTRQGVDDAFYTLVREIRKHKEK
Experimental: as §3

[17] = target: T4, KRas^G12D (Homo sapiens, UniProt P01116, G12D); experiment: as above
T4 construct: […]; biotin (biotinylated); purchased Accelegan Inc
T4 sequence (P01116 1-169 isoform P01116-2 G12D): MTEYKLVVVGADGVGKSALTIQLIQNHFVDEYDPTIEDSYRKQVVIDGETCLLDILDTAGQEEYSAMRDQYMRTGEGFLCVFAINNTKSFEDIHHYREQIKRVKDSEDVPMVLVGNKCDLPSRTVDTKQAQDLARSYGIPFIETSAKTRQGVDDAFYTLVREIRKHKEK
Experimental: as §3

[18] = target: KRas^G12C (Homo sapiens, UniProt P01116, G12C); experiment: biochemical
Sequence of KRas^G12C (P01116 1-169 isoform P01116-2 G12C): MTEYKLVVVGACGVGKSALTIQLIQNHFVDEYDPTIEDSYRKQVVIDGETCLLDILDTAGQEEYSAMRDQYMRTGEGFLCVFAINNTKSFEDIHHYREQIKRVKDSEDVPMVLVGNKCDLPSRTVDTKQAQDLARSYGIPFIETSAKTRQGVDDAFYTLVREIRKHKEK
Experimental: as §3

[19] = target: KRas^Q61H (Homo sapiens, UniProt P01116, Q61H); experiment: biochemical
Sequence of KRas^Q61H (P01116 1-169 isoform P01116-2 Q61H): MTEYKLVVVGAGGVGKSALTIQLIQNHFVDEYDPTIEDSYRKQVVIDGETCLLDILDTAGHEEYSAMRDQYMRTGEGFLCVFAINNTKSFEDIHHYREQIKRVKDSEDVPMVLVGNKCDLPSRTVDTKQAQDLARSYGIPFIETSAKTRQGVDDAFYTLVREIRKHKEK
Experimental: as §3

[20] = target: T5, KRas^G12A (Homo sapiens, UniProt P01116, G12A); experiment: KRas binding assay (TR-FRET displacement of Cy5 labelled tracer)
T5 construct: […]; biotin (biotinylated); purchased Accelegan Inc
T5 sequence (P01116 1-169 isoform P01116-2 G12A): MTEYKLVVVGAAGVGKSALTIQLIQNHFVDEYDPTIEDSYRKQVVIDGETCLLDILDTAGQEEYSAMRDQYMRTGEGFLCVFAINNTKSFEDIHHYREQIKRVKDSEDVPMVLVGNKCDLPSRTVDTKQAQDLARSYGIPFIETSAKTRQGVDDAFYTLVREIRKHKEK
Experimental: as §3

[21] = target: T6, KRas^G12S (Homo sapiens, UniProt P01116, G12S); experiment: as above
T6 construct: […]; biotin (biotinylated); purchased Accelegan Inc
T6 sequence (P01116 1-169 isoform P01116-2 G12S): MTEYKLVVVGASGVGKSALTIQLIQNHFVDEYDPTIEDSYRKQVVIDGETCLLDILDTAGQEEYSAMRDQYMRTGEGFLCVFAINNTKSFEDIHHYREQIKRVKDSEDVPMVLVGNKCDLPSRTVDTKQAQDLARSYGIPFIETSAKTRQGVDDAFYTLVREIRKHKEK
Experimental: as §3

CCc1c(F)ccc2cc(O)cc(N3CCc4c(nc(OC[C@@]56CCCN5C[C@H](F)C6)nc4N4CCC[C@@](C)(O)C4)C3)c12 [Example 2, (R)-1-(7-(8-ethyl-7-fluoro-3-hydroxynaphthalen-1-yl)-2-(((2R,7aS)-2-fluorohexahydro-1H-pyrrolizin-7a-yl)methoxy)-5,6,7,8-tetrahydropyrido[3,4-d]pyrimidin-4-yl)-3-methylpiperidin-3-ol]
IC50 [1]: 146 nM
IC50 [2]: 426 nM
IC50 [3]: 144 nM
IC50 [4]: 29 nM
IC50 [5]: 315 nM
IC50 [6]: 798 nM
IC50 [7]: 280 nM
IC50 [8]: 241 nM
IC50 [9]: 863 nM
IC50 [10]: 3530 nM
IC50 [11]: 252 nM
IC50 [12]: 184 nM
IC50 [13]: 52 nM
IC50 [14]: ≤ 2 nM
IC50 [15]: ≤ 2 nM
IC50 [16]: ≤ 2 nM
IC50 [17]: ≤ 2 nM
IC50 [18]: ≤ 2 nM
IC50 [19]: ≤ 2 nM
IC50 [20]: ≤ 2 nM
IC50 [21]: ≤ 2 nM
